Assay results taken from patent US20120058236A1, “SWEETENER COMPOSITION COMPRISING HIGH SOLUBILITY FORM OF REBAUDIOSIDE A AND METHOD OF MAKING” (Cargill Incorporated, priority 2009, published 2012).

Columns and labels:
[1] = Stability of aqueous solution of rebaudioside A crystal form; assay type: physicochemical; conditions: solution from Form 1 crystals containing more than about 1 g/100 g water
Source text: In some sweetening applications it is desirable to provide a sweetener composition of rebaudioside A that has a higher solubility in water than Form 2. […] Increased solubility in water allows more of the sweetener to be dissolved in a food product in order to provide the desired sweetness level. Increased solubility may be desirable in food products such as syrups and concentrates.

[2] = assay type: physicochemical
Description: (§1) 10 mg of sample was mixed with 0.5 mL deionized water and stirred by a magnetic stirrer at room temperature. As the solid was completely dissolved, more solid was added to the system with the increments of 10-40 mg until the solution became cloudy, which corresponded to the final concentration of 0.41 g/mL. The cloudy solution was filtered through a Millex-GV 0.22 um filter into a pre-weighted aluminum pan and the known mass of clear filtered solution was placed into an oven at 85° C. The solvent was completely evaporated and the residual solid was weighted to determine solubility.
as §1, with “16 mg of” for “10 mg of”, “mixed with 1 mL deionized” for “mixed with 0.5 mL deionized”, “water and was stirred by” for “water and stirred by”, “concentration of 0.4 g/mL. The” for “concentration of 0.41 g/mL. The”

Row | Structure (SMILES) | Stability in solution (conversion of dissolved form) [1] | Concentration left in solution after conversion to Form 2 ([1]; after hours to days) | Solubility at 22° C. (grams/100 grams water) [2] [grams/100 grams water] | Solubility in water at 24° C. (typical, stated in text) [2]
1 | C=C1C[C@@]23CC[C@H]4[C@@](C)(CCC[C@@]4(C)C(=O)O[C@@H]4O[C@H](CO)[C@@H](O)[C@H](O)[C@H]4O)[C@@H]2CC[C@]1(O[C@@H]1O[C@H](CO)[C@@H](O)[C@H](O[C@@H]2O[C@H](CO)[C@@H](O)[C@H](O)[C@H]2O)[C@H]1O[C@@H]1O[C@H](CO)[C@@H](O)[C@H](O)[C@H]1O)C3 [Form 1, rebaudioside A] | tends to convert to Form 2 within hours to days | about 1 g/100 g water |  | 
2 | C=C1C[C@@]23CC[C@H]4[C@@](C)(CCC[C@@]4(C)C(=O)O[C@@H]4O[C@H](CO)[C@@H](O)[C@H](O)[C@H]4O)[C@@H]2CC[C@]1(O[C@@H]1O[C@H](CO)[C@@H](O)[C@H](O[C@@H]2O[C@H](CO)[C@@H](O)[C@H](O)[C@H]2O)[C@H]1O[C@@H]1O[C@H](CO)[C@@H](O)[C@H](O)[C@H]1O)C3 [Form 2, rebaudioside A] |  |  | 0.154 | ≤ 1 grams rebaudioside A/100 grams
